Laboratory results from article PMC6136712, “Ex vivo drug sensitivity testing as a means for drug repurposing in esophageal adenocarcinoma” (PLoS ONE, 2018).
Counter-ions that a name gives are not always drawn.

Tested on: normal esophageal epithelium cell line EACN42
Experiment: FDA library drug sensitivity testing (CellTiter-Glo, 72 h), normal control cells
Type: cell-based, human
Parameters: key to DSS: modified drug sensitivity score (DSSmod) from dose-response curve fit
Conditions: 72 h; for EC50: cell viability (ATP), max test concentration 10μM
Experimental: The normal esophageal epithelium cell line EACN42 was established in the Capobianco laboratory. The cell lines was derived from human normal epithelium and immortalized using HPV E6-E7.
Drug sensitivity testing (DST) was performed as described previously. […] Individual drugs were dissolved in 100% DMSO and tested in duplicates starting at a maximal test concentration of 10μM then over a 20,000-fold concentration range to generate dose response curves. Wells with assay buffer containing DMSO served as negative controls. 1000 exponentially growing cells were seeded per well in 384-well micro-titer plates and incubated in the presence of compounds in a humidified environment at 37°C and 5% CO2. After 72 hours of treatment, cell viability was assessed by measuring ATP levels via bioluminescence (CellTiter-Glo, Promega) according to manufactures recommendations. Interpretation of curve parameters was performed according to the modified drug sensitivity scoring (DSSmod) function developed by Swords et al. […] Given in this way, the sDSSmod incorporated information on each drug’s potency, efficacy, effect range and therapeutic index, making it possible to prioritize compounds over multiple parameters using a single numerical metric. […] All calculations and scoring routines are implemented in MatLab and additional curve fitting and statistical analyses are performed in GraphPad prism.

[1] = drug sensitivity score, EACN42 normal esophageal cells
[2] = Homo sapiens, EACN42 normal esophageal cells

Compound	DSS [1]	further results
C=C1C[C@@H]2[C@H](CC[C@]3(C)C(=O)CC[C@@H]23)[C@@]2(C)C=CC(=O)C=C12 [Exemestane]		DSS: 0
O=C1[C@H](CC[C@H](O)c2ccc(F)cc2)[C@@H](c2ccc(O)cc2)N1c1ccc(F)cc1 [Ezetimibe]	0	
CC(=O)OCC(CCn1cnc2cnc(N)nc21)COC(C)=O [Famciclovir]	0	EC50 [2]: 1120 nM
Cc1nc(-c2ccc(OCC(C)C)c(C#N)c2)sc1C(=O)O [Febuxostat]	0	EC50 [2]: > 10000 nM
Cl.Cl.Fc1ccc(C(c2ccc(F)cc2)N2CCN(C/C=C/c3ccccc3)CC2)cc1 [Flunarizine 2HCl]	0.03	
CC(C)C(=O)Nc1ccc([N+](=O)[O-])c(C(F)(F)F)c1 [Flutamide]	0	
O=c1[nH]c(=O)n(C2CCCO2)cc1F (stereo not drawn) [Ftorafur]	0	
C[C@]12CC[C@@H]3c4ccc(O)cc4C[C@@H](CCCCCCCCC[S+]([O-])CCCC(F)(F)C(F)(F)F)[C@H]3[C@@H]1CC[C@@H]2O (stereo partly drawn) [Fulvestrant]	0	
COc1cc2ncnc(Nc3ccc(F)c(Cl)c3)c2cc1OCCCN1CCOCC1 [Gefitinib]	0	
O=C(O)C1=CO[C@@H](O[C@@H]2O[C@H](CO)[C@@H](O)[C@H](O)[C@H]2O)[C@@H]2C(CO)=CC[C@H]12 [Geniposidic acid]	0	
C[C@]12CCC(=O)C=C1CC[C@@H]1[C@@H]2[C@@H](O)C[C@@]2(C)[C@H]1CC[C@]2(O)C(=O)CO [Hydrocortisone]	0	
NC(=O)NO [Hydroxyurea]	0	
CN[C@H]1C[C@@H](N)[C@H](O)[C@@H](O[C@@H]2O[C@H](CO)[C@H](O)[C@@H]3OC4(O[C@H]23)O[C@H]([C@@H](N)CO)[C@H](O)[C@H](O)[C@H]4O)[C@@H]1O (stereo partly drawn) [Hygromycin B]	3.8	EC50 (EACN42 normal esophageal cells): 7770 nM
O=P1(NCCCl)OCCCN1CCCl (stereo not drawn) [Ifosfamide]	0	
Cc1ccc(NC(=O)c2ccc(CN3CCN(C)CC3)cc2)cc1Nc1nccc(-c2cccnc2)n1 [Imatinib]	0	
CC(C)Cn1cnc2c(N)nc3ccccc3c21 [Imiquimod]	0	EC50 [2]: 2000 nM
CC1=C(/C=C/C(C)=C/C=C/C(C)=C\C(=O)O)C(C)(C)CCC1 [Isotretinoin]	0	
CCC(C)n1ncn(-c2ccc(N3CCN(c4ccc(OCC5COC(Cn6cncn6)(c6ccc(Cl)cc6Cl)O5)cc4)CC3)cc2)c1=O (stereo not drawn) [Itraconazole]	0	
Cl.N=C(N)NCCC[C@H](N)C(=O)O [L-Arginine HCl]	0	EC50 (EACN42 normal esophageal cells): 10 nM
Nc1nnc(-c2cccc(Cl)c2Cl)c(N)n1 [Lamotrigine]	0	
CS(=O)(=O)CCNCc1ccc(-c2ccc3ncnc(Nc4ccc(OCc5cccc(F)c5)c(Cl)c4)c3c2)o1 [Lapatinib]	0	EC50 [2]: 40 nM
Nc1cccc2c1CN(C1CCC(=O)NC1=O)C2=O (stereo not drawn) [Lenalidomide]	0	

Compound	DSS [1]	further results
N#Cc1ccc(C(c2ccc(C#N)cc2)n2cncn2)cc1 [Letrozole]	0	EC50 [2]: 60 nM
Nc1nc2c(c(=O)[nH]1)N(C=O)C(CNc1ccc(C(=O)N[C@@H](CCC(=O)O)C(=O)O)cc1)CN2 (stereo partly drawn) [Leucovorin Calcium]	0.04	EC50 [2]: 90 nM
CC#CCn1c(N2CCC[C@@H](N)C2)nc2c1c(=O)n(Cc1nc(C)c3ccccc3n1)c(=O)n2C [Linagliptin]	0	EC50 [2]: 380 nM
CCC[C@@H]1C[C@@H](C(=O)N[C@@H]([C@H]2O[C@H](SC)[C@H](O)[C@@H](O)[C@H]2O)[C@@H](C)O)N(C)C1 [Lincomycin hydrochloride]	0	EC50 [2]: 990 nM
O=NN(CCCl)C(=O)NC1CCCCC1 [Lomustine]	0	
O=C(O)c1nn(Cc2ccc(Cl)cc2Cl)c2ccccc12 [Lonidamine]	0	
Cc1ccc(NC(=O)c2ccc(CN3CCN(C)CC3)cc2)cc1Nc1nc(-c2cccnc2)cs1 [Masitinib]	0	
CC(=O)O[C@]1(C(C)=O)CC[C@H]2[C@@H]3C[C@H](C)C4=CC(=O)CC[C@]4(C)[C@H]3CC[C@@]21C [Medroxyprogesterone acetate]	0	
CC(=O)O[C@]1(C(C)=O)CC[C@H]2[C@@H]3C=C(C)C4=CC(=O)CC[C@]4(C)[C@H]3CC[C@@]21C [Megestrol Acetate]	0	
C=C1c2cccc(O)c2C(=O)C2=C(O)[C@]3(O)C(=O)C(C(N)=O)=C(O)[C@@H](N(C)C)[C@@H]3[C@@H](O)[C@H]12 [Methacycline hydrochloride]	0	EC50 [2]: > 10000 nM
Cn1nnc2c(C(N)=O)ncn2c1=O [Methazolastone]	0	
CC#C[C@]1(O)CC[C@H]2[C@@H]3CCC4=CC(=O)CCC4=C3[C@@H](c3ccc(N(C)C)cc3)C[C@@]21C [Mifepristone]	0	
Nc1nc(CC(=O)Nc2ccc(CCNC[C@H](O)c3ccccc3)cc2)cs1 [Mirabegron]	0	EC50 [2]: 20 nM
Clc1ccc(C(c2ccccc2Cl)C(Cl)Cl)cc1 (stereo not drawn) [Mitotane]	0	EC50 [2]: 6 nM
NC(=O)c1ncn([C@@H]2O[C@H](CO)[C@@H](O)[C@H]2O)c1O [Mizoribine]	0	EC50 [2]: 6 nM
N=C(N)/N=C(\N)N1CCOCC1 [Moroxydine]	0	
C=CCN1CC[C@]23c4c5ccc(O)c4O[C@H]2C(=O)CC[C@@]3(O)[C@H]1C5 [Naloxone HCl]	0	
COc1nc(N)nc2c1ncn2[C@@H]1O[C@H](CO)[C@@H](O)[C@@H]1O [Nelarabine]	0	
COC(=O)C1=C(C#N)NC(C)=C(C(=O)OC(C)C)C1c1cccc([N+](=O)[O-])c1 (stereo not drawn) [Nilvadipine]	0	EC50 [2]: 10 nM
COc1ccc2c(c1OC)C(=O)O[C@@H]2[C@H]1c2c(cc3c(c2OC)OCO3)CCN1C [Noscapine HCl]	0	
CC1COc2c(N3CCN(C)CC3)c(F)cc3c(=O)c(C(=O)O)cn1c23 (stereo not drawn) [Ofloxacin]	0	
O=C1[O][Pt]2([NH][C@@H]3CCCC[C@H]3[NH]2)[O]C1=O [Oxaliplatin]	0.06	treatment response in words (EACN42 normal esophageal cells): minimal treatment effects

Compound	DSS [1]	further results
C[C@@]12C[C@@]3(O)O[C@@H](O1)[C@]1(COC(=O)c4ccccc4)[C@H]3C[C@@]12O[C@@H]1O[C@H](CO)[C@@H](O)[C@H](O)[C@H]1O [Paeoniflorin]	0	
NCCC(O)(P(=O)([O-])O)P(=O)([O-])O.[Na+].[Na+] [Pamidronate Disodium]	0	
Cc1ccc(Nc2nccc(N(C)c3ccc4c(C)n(C)nc4c3)n2)cc1S(N)(=O)=O [Pazopanib]	0	
CCCCC1C(=O)N(c2ccccc2)N(c2ccccc2)C1=O [Phenylbutazone]	0	
CC[C@@H]1/C=C(\C)C[C@H](C)C[C@H](OC)[C@H]2O[C@@](O)(C(=O)C(=O)N3CCCC[C@H]3C(=O)O[C@H](/C(C)=C/[C@@H]3CC[C@H](Cl)[C@H](OC)C3)[C@H](C)[C@@H](O)CC1=O)[C@H](C)C[C@@H]2OC [Pimecrolimus]	1.11	EC50 [2]: 5300 nM
CCc1ccc(CCOc2ccc(CC3SC(=O)NC3=O)cc2)nc1 (stereo not drawn) [Pioglitazone]	0	
Nc1cccc2c1C(=O)N(C1CCC(=O)NC1=O)C2=O (stereo not drawn) [Pomalidomide]	0	EC50 [2]: 0.158 nM
C[C@]12C=CC(=O)C=C1CC[C@@H]1[C@@H]2C(=O)C[C@@]2(C)[C@H]1CC[C@]2(O)C(=O)CO [Prednisone]	0	
CNNCc1ccc(C(=O)NC(C)C)cc1 [Procarbazine HCl]	0	
CNC(=O)c1cc(Oc2ccc(NC(=O)Nc3ccc(Cl)c(C(F)(F)F)c3)c(F)c2)ccn1 [Regorafenib]	1.85	EC50 [2]: > 10000 nM
CN(CCOc1ccc(CC2SC(=O)NC2=O)cc1)c1ccccn1 (stereo not drawn) [Rosiglitazone]	0	
N#CC[C@H](C1CCCC1)n1cc(-c2ncnc3[nH]ccc23)cn1 [Ruxolitinib]	0	
CCCC(=O)[O-].[Na+] [Sodium butyrate]	0	
CNC(=O)c1cc(Oc2ccc(NC(=O)Nc3ccc(Cl)c(C(F)(F)F)c3)cc2)ccn1 [Sorafenib]	1.79	EC50 [2]: 9620 nM
CC1=C(CC(=O)O)c2cc(F)ccc2/C1=C\c1ccc([S+](C)[O-])cc1 (stereo not drawn) [Sulindac]	0	EC50 [2]: 50 nM
CCN(CC)CCNC(=O)c1c(C)[nH]c(/C=C2\C(=O)Nc3ccc(F)cc32)c1C [Sunitinib Malate]	0	EC50 [2]: 10 nM
C=CC[C@@H]1/C=C(\C)C[C@H](C)C[C@H](OC)[C@H]2O[C@@](O)(C(=O)C(=O)N3CCCC[C@H]3C(=O)O[C@H](/C(C)=C/[C@@H]3CC[C@@H](O)[C@H](OC)C3)[C@H](C)[C@@H](O)CC1=O)[C@H](C)C[C@@H]2OC [Tacrolimus]	0	
CC/C(=C(\c1ccccc1)c1ccc(OCCN(C)C)cc1)c1ccccc1 [Tamoxifen Citrate]	0	
CCOC(=O)[C@H](CCc1ccccc1)N[C@H]1CS[C@H](c2cccs2)CN(CC(=O)O)C1=O [Temocapril HCl]	0	
O=C1CCC(N2C(=O)c3ccccc3C2=O)C(=O)N1 (stereo not drawn) [Thalidomide]	0	
C[C@@H]1CCN(C(=O)CC#N)C[C@@H]1N(C)c1ncnc2[nH]ccc12 [Tofacitinib citrate]	0	
